Test results published in patent US8334002B2, “Cinnamaldehyde—allicin compositions and their method of use” (Valent BioSciences Corporation, priority 2008, dated 2012).

Experiments:
[1] = tested on: Root Knot Nematodes (Meloidogyne incognita); test: Greenhouse pot test, root galling after inoculation with second stage juveniles; format: in vivo; conditions: 300 ppm total a.i.
Text: Procedure for Greenhouse pot Tests:
2″×2″ plastic pots are filled with 140 to 150 g of plant growth medium that is made up of non-pasteurized sand and soil at 2:1 ratio. Three cucumber seeds (variety Straight Eight; in the case of tomatoes, variety Rutgers) are planted at uniform depth and watered. Upon emergence, two uniform seedlings are allowed to grow in each pot by removing the third seedling. Seedlings are selected when the first true leaf is emerged, generally 5 to 7 days after planting. Each pot is treated with test material diluted in 25 mL of water that is just sufficient to wet the soil but not drip. Except for untreated control, all test pots are inoculated with about 800 second stage juveniles of Root Knot Nematodes (Meloidogyne incognita). Plants are watered as needed. Twelve to fourteen days after the pots are inoculated, the plants are carefully removed from the pots, the roots are gently washed free of soil and placed on paper towels, and data on fresh weight of shoots, roots, number of galls/treatment and/or per gram of root are taken.

nematodes = conditions: at concentrations of 300 ppm; cited from earlier work
[2] = cucumber, preferred formulations of Table 2

| SMILES | % gall reduction in relation to M.i Control [1, 2] [%] | Average gall rating (0-9) [1, 2] | % gall reduction in relation to M.i Control ([1]; prototype formulations of Table 1) [%] | Average gall rating (0-9) ([1]; prototype formulations of Table 1, 0 = no galls, 9 = heavy galling) | nematicidal activity (nematodes) |
| --- | --- | --- | --- | --- | --- |
| C=CCS[S+]([O-])CC=C (stereo not shown) [Allicin, allicin] | 41.7 | 5.25 | 72.7 | 2.25 |  |
| O=CC=Cc1ccccc1 [Cinnamaldehyde, cinnamaldehyde] | 19.4 | 7.25 |  |  | only marginal |
